Data from patent US10626113B2, “Phosphodiesterase inhibitors and uses thereof” (THE TRUSTEES OF COLUMBIA UNIVERSITY IN THE CITY OF NEW YORK, priority 2012, dated 2020).
Read-outs that look alike come from different tables or passages of the source.

What was measured:
[1] = Acute toxicity study with histology; type: in vivo; details: 120 or 240 mg/kg, i.p.
Description: Brain, muscle, kidney, and liver were harvested from each mouse, and tissue from each organ was examined histologically by a board-certified pathologist for signs of toxicity.

[2] = system: LTP at the CA3-CA1 connection of hippocampal slices; assay: Long-term potentiation in hippocampal slices, compound in bath perfusion; set-up: species or system mice; details: 50 nM bath perfusion
[3] = Pharmacokinetic study in mice; type: in vivo; details: 25 mg/kg i.p.
APP/PS1 mice = assay: 2-day radial arm water maze (reference memory); type: in vivo; details: 3 mg/kg i.p. for 3 weeks
Procedure: The radial arm water maze task, a hybrid of the classic Morris Water Maze and the radial arm land maze, was performed as described in J. Alamed, D. M. Wilcock, D. M. Diamond, M. N. Gordon, D. Morgan, Two-day radial-arm water maze learning and memory task; robust resolution of amyloid-related memory deficits in transgenic mice, Nat. Prot. 1 (2006) 1671-1679, herein incorporated by reference in its entirety. The mouse had to swim in 6 alleys (arms) radiating from a central area until it found a hidden (submerged) platform at the end of one of the arms, based on visual cues placed in the room. The first day of the protocol was a training day on which mice were trained to identify the platform location by alternating between a visible and a hidden platform in a goal arm. The final 3 trials on that day and all 15 trials on day 2 used a hidden escape platform to force mice to use spatial cues to identify the location of the goal arm. […] The number of incorrect arm entries (entries to arms with no platform) was counted. […] Failure to select an arm after 15 sec was counted as an error and the mouse was returned to the start arm. […] For data analysis, averages for each mouse were calculated using blocks of 3 trials. […]

hippocampal cGMP levels = assay: Hippocampal cGMP assay after foot shock; type: in vivo, mice
Procedure: The hippocampal samples were extracted and snap frozen in liquid nitrogen. Levels of cGMP were quantitated by Enzyme Immunoassay procedure (Cayman Chemical Company, Item no. 581021) following the manufacturer's guidelines in duplicate. cGMP levels were normalized with the protein concentration calculated using BCA Protein Assay Reagent (Thermo Scientific).
cGMP levels in adult mice after treatment with compound H were measured. In a series of preliminary experiments, foot shock induces an immediate increase in cGMP levels in the hippocampus (FIG. 1). Concentration of cGMP was measured by enzyme immunoassay. Basal represents cGMP levels without foot shock. Values are the mean of duplicate determinations. Error bars show S.E.M. (n=3 per group); *p<0.01; ^‡p=0.033.

## COc1ccc(CNc2c3c(nc4ccc(C#N)cc24)CCN(C(C)=O)C3)cc1Cl [Compound H, 2-acetyl-10-[(3-chloro-4-methoxybenzyl)amino]-1,2,3,4-tetrahydrobenzo[b][1,6]naphthyridine-8-carbonitrile]
[1]
  brain sections, CD45 immunostain: no signs of inflammation
  brain sections, GFAP immunostain: no signs of gliosis
  brain sections, H&E: did not show any signs of toxicity
  brain sections, LFB-PAS stain: no signs of demyelination
  kidney sections, H&E: no toxicity
  kidney sections, PAS stain: did not show any abnormalities in the glomerular basement membrane
  kidney sections, trichrome stain: no fibrosis
  liver sections, H&E: did not show any signs of toxicity
  liver sections, trichrome stain: no fibrosis or cirrhotic liver disease
  muscle sections, H&E: no signs of toxicity
  muscle sections, trichrome stain: no muscle fibrosis
[2]
  effect on LTP of WT slices: no effect
[3]; male C57Bl6 mice
  Cmax, brain: 492.25 ng/g
  Tmax, brain: 15 min
  Tmax, plasma: 15 min
  t1/2 elimination half-life, brain: 39 min
  t1/2 elimination half-life, plasma: 64.2 min
[3]; male, C57Bl6, mouse, brain/plasma, ip, 25 mg/kg
  brain/plasma Cmax ratio: 0.31
[3]; mouse, brain, ip, male C57Bl6 mice, read-out: MRT Mean Residence Time, brain
  MRT: 57 min
[3]; mouse, plasma, ip, male C57Bl6 mice
  Cmax: 1570 ng/mL
[3]; mouse, plasma, ip, male C57Bl6 mice, read-out: MRT Mean Residence Time, plasma
  MRT: 93.6 min
APP/PS1 mice
  effect on reference memory of WT mice (2-day RAWM): no effect
Hippocampal cGMP levels; 3 mg/kg i.p. 30 min before foot shock, 10 sec after shock
  hippocampal cGMP level: 0.48 ± 0.014 pmol/mg
Hippocampal cGMP levels; 3 mg/kg i.p. 30 min before foot shock, 60 sec after shock
  hippocampal cGMP level: 0.58 ± 0.033 pmol/mg
Hippocampal cGMP levels; 3 mg/kg i.p. 30 min before foot shock, 180 sec after shock
  hippocampal cGMP level: 0.58 ± 0.044 pmol/mg
Hippocampal cGMP levels; 10 mg/Kg i.p. 30 min before foot shock, 10 sec after shock
  hippocampal cGMP level: 0.56 ± 0.033 pmol/mg
Hippocampal cGMP levels; 10 mg/Kg i.p. 30 min before foot shock, 60 sec after shock
  hippocampal cGMP level: 0.70 ± 0.028 pmol/mg
Hippocampal cGMP levels; 10 mg/Kg i.p. 30 min before foot shock, 180 sec after shock
  hippocampal cGMP level: 0.63 ± 0.013 pmol/mg
